One experiment relates to F. graminearum. The following applies: F. graminearum; minimum inhibitory concentration, achieving a score of 1 or greater.

Converted amounts (≈) assume the structure as drawn. Like-named read-outs stand apart in the source and are kept apart here. Residues, ends and D or L forms follow the SMILES beside them.

As for `CC[C@H](C)[C@H](NC(=O)CNC(=O)[C@@H](NC(=O)[C@@H](NC(=O)[C@@H](NC(=O)CNC(=O)[C@@H]1CCCN1C(=O)CNC(=O)[C@H](C)NC(=O)[C@H](CC(C)C)NC(=O)[C@H](C)NC(=O)[C@H](CCCNC(=N)N)NC(=O)[C@@H](NC(=O)[C@H](CCCNC(=N)N)NC(=O)[C@@H](NC(=O)[C@H](CCCNC(=N)N)NC(=O)[C@H](CCCNC(=N)N)NC(=O)[C@@H]1CCCN1C(=O)[C@@H](NC(=O)[C@H](Cc1c[nH]cn1)NC(=O)[C@H](CCCNC(=N)N)NC(=O)[C@@H](NC(=O)[C@H](C)NC(=O)[C@H](CCCNC(=N)N)NC(=O)[C@H](Cc1ccc(O)cc1)NC(=O)[C@@H](NC(=O)[C@H](CCCNC(=N)N)NC(=O)[C@H](CCCNC(=N)N)NC(=O)[C@@H](NC(=O)[C@H](C)NC(=O)[C@H](CCCNC(=N)N)NC(=O)[C@@H](N)CCC(N)=O)C(C)C)[C@@H](C)CC)[C@@H](C)CC)[C@@H](C)CC)[C@@H](C)CC)[C@@H](C)CC)C(C)C)[C@@H](C)O)[C@@H](C)CC)C(=O)N[C@@H](C)C(=O)N[C@@H](Cc1c[nH]cn1)C(=O)N[C@@H](C)C(=O)N[C@@H](CCCCN)C(=O)N[C@@H](CO)C(=O)N[C@@H](CCC(N)=O)C(=O)N[C@@H](CC(C)C)C(=O)N[C@@H](Cc1c[nH]c2ccccc12)C(=O)O` [Peptide 3] (H-QRAVRRIYRAIRHIPRRIRIRALAGPGVTIGIAHAKSQLW-OH), the MIC stood at 0.013 ng/mL (≈ 0.00281 nM) in the experiment with F. graminearum and 13 in the experiment with F. moniliforme. The “% Inhibition of Growth” value with E. coli (concentration 3.00 µg/ml), in the experiment on E. coli (concentration 6.25 µg/ml), with E. coli (concentration 12.5 µg/ml), in the experiment with E. coli (concentration 25 µg/ml), in the experiment on E. coli (concentration 50 µg/ml) and in the experiment on P. syringae (concentration 3.00 µg/ml) was 0% each time. For the same compound, the “% Inhibition of Growth” value is on record as 11% with P. syringae (concentration 6.25 µg/ml); 30% in the experiment on P. syringae (concentration 12.5 µg/ml); 48% with P. syringae (concentration 25 µg/ml); 52% in the experiment on P. syringae (concentration 50 µg/ml); 0% in the experiment with E. stewartii (concentration 3.00 µg/ml); 0% with E. stewartii (concentration 6.25 µg/ml). Besides, the figures for the “% Inhibition of Growth” value with E. stewartii (concentration 12.5 µg/ml), in the experiment with E. stewartii (concentration 25 µg/ml) and with E. stewartii (concentration 50 µg/ml) were 49%, 80% and 100%, respectively.

For the origin of these results see patent EP0678100B1, “SYNTHETIC AMPHIPATHIC PEPTIDES WITH ANTIMICROBIAL ACTIVITY” (PIONEER HI-BRED INTERNATIONAL, INC., priority 1993, dated 1998).
